Data as given in patent publication US20070249648A1, “Novel Diazaspiroalkanes and Their Use for Treatment of Ccr8 Mediated Diseases” (priority 2003, published 2007).
Counter-ions that a name gives are not always drawn.

Target: T1, human recombinant chemokine CCR8 receptor (Homo sapiens, UniProt P51685)
T1 construct: purchased Euroscreen ES-136-M; host or cells: CHO-K1 cells (membrane preparation)
Assay: CCL1 SPA Binding Assay
Settings: 125I CCL1 (30 pM) binding to membranes from CHO-K1 cells transfected with CCR8, Wheat Germ Agglutinin SPA beads; typical data
Description: Membranes from CHO-K1 cells transfected with human recombinant chemokine CCR8 receptor (ES-136-M) were purchased from Euroscreen. Membrane preparations are stored at −70C in 7.5 mM Tris-Cl pH 7.5, 12.5 mM MgCl2, 0.3 mM EDTA, 1 mM EGTA, 250 mM sucrose until used.
The CCR8 membranes ([…]) were preincubated with Wheat Germ Agglutinin SPA beads (4.05 mg/ml) in assay buffer (50 mM HEPES, 1 mM CaCl2x2H2O, 5 mM MgCl2x6H2O, 75 mM NaCl, 0.1% BSA) at pH=7.4 for 2 hours on ice. A 10-point dose-response curve (final concentrations 50 μM, 16.7 μM, 5.6 μM, 1.9 μM, 0.62 μM, 0.21 μM, 0.069 μM, 0.023 μM) was prepared by diluting compounds by serial dilution 1:3 in DMSO. In the screening plate (Polystyrene NBS plates, Costar Corning 3604) 1 μl from the DMSO solutions of compounds was transferred into each well. 1 μl of DMSO was added to the blank control wells and 1 μl unlabeled CCL1 (300 nM) was added to background control wells. 50 μl of the SPA bead-membrane mixture was added into each well. Finally, 50 μl (30 pM) ^125I CCL1 (2000 Ci/mM) was added to each well. Plates were then incubated at RT with shaking (700 rpm) for 90 minutes followed by 30 minutes at RT without shaking. The plate was read in a Wallac MicroBeta counter for 2 minutes/well.

T1 sequence (P51685 whole entry): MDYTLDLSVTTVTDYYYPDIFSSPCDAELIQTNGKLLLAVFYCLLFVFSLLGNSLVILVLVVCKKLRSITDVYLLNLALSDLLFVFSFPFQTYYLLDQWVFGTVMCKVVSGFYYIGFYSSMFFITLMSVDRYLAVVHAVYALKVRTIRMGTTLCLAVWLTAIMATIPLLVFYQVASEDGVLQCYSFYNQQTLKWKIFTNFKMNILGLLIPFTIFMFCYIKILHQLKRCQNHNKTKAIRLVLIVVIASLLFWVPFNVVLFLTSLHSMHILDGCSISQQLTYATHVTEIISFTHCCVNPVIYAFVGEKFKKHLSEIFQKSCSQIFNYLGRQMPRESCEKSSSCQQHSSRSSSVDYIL

| SMILES | IC50 [nM] |
| --- | --- |
| CCCOc1ccccc1CN1CCC2(CC1)CCN(C(=O)c1ccccc1)CC2 [3-benzoyl-9-(2-propoxybenzyl)-3,9-diazaspiro[5.5]undecane trifluoroacetate] | 165 |
| Cc1noc(C)c1COc1ccccc1CN1CCC2(CC1)CCN(C(=O)c1ccccc1)CC2 [3-benzoyl-9-{2-[(3,5-dimethylisoxazol-4-yl)methoxy]benzyl}-3,9-diazaspiro[5.5]undecane trifluoroacetate] | 710 |
